According to patent US20130303788A1, “METHOD OF PRODUCING BIPHENOLIC COMPOUND, NOVEL BIPHENYL COMPOUND AND SYNTHESIS METHOD THEREOF, AND PHARMACEUTICAL COMPOSITION FOR TREATING PARKINSON'S DISEASE” (Tzu Chi University, priority 2012, published 2013):

Key:
[1] = system: TH (Tyrosine Hydroxylase); assay: TH expression level (TH immunohistochemistry) in 6-OHDA mouse model of PD; assay type: in vivo, NMRI mice
Method: (§1) The respective NMRI mouse was deeply anaesthetized with thiopental (50 mg/kg, intraperitoneally). The respective NMRI mouse was perfused transcardially with a heparin solution (0.05% heparin in 0.1 M PBS), and was subsequently perfused with 100 mL of ice-cold fixative (4% paraformaldehyde in 0.1 M PBS). The brain of the respective NMRI mouse was removed and was postfixed in the same ice-cold fixative for 12 hours, followed by dehydration in 30% sucrose in 0.1 M PBS. The brain was frozen and was subjected to tissue slicing. Serial coronal sections (a thickness of 20 μm) were cut on a freezing microtome and were placed in PBS. The sections were later processed for free-floating TH or iNOS immunohistochemistry.
The sections were rinsed three times with PBS (30 minutes for each time), were treated with 3% H2O2/10% methanol in PBS for 30 minutes for quenching the endogenous peroxidase activity, and were rinsed three times with PBS. After preincubation with 0.5% normal goat serum (NGS)/0.2% Triton in PBS, the sections were incubated with a primary antibody (anti-TH antibody or anti-iNOS antibody, 1:5000, Novus Biologicals, Inc., Littleton, Colo., USA) in 0.5% NGS/PBS at 4° C. for 16-18 hours. After being rinsed three times with PBS, the sections were incubated with a biotinylated goat anti-rabbit IgG (1:200) in PBS for 1 hour. Subsequently, the sections were rinsed three times with PBS and were stained with 0.05% diaminobenzidine/0.03% H2O2 in PBS for 5 minutes. The respective section was placed on a gelatin-coated slide, dehydrated through ascending concentrations of alcohol, and covered with a slipcover for observation under a light microscope.
The obtained data were subjected to the statistical analysis as described in section 5 of General Procedures. TH expression level in the striatum was determined according to the method as described in section 4 of General Procedures.
TH expression level in the striatum and the substantia nigra (SN), and iNOS expression level in the striatum were determined according to the method as described in section 4 of General Procedures on Day 21 after the injection of 6-OHDA or the vehicle.
In addition, the optical density regarding the lesioned and unlesioned sites in the striatum and SN of the NMRI mice (e.g., the sham operated control, the pathological control, and the NMRI mice treated with product 1) was determined from the obtained photomicrographs illustrating TH expression level via ImageJ software (National Institutes of Health). The relative optical density was calculated using the following formula:
where J=relative optical density • K=optical density of the lesioned site • L=optical density of the unlesioned site

[2] = system: inflammatory pain; settings: Lin Yi-Ruu et al. (2007); cited from earlier work
[3] = system: iNOS (Inducible Nitric Oxide Synthase); assay: iNOS expression level (iNOS immunohistochemistry) in striatum of 6-OHDA mouse model of PD; assay type: in vivo, NMRI mice; settings: Day 21 after 6-OHDA, FIG. 17
Method: as §1
The sections were rinsed three times with PBS (30 minutes for each time), were treated with 3% H2O2/10% methanol in PBS for 30 minutes for quenching the endogenous peroxidase activity, and were rinsed three times with PBS. […]
TH expression level in the striatum and the substantia nigra (SN), and iNOS expression level in the striatum were determined according to the method as described in section 4 of General Procedures on Day 21 after the injection of 6-OHDA or the vehicle. […]

[4] = system: mouse model of PD (6-OHDA unilateral striatal lesion); assay: Beam walking test, incoordination induced by 6-OHDA; assay type: in vivo, NMRI mice
Method: Product 1 was administered intraperitoneally to NMRI mice at a dose of 5 mg/kg. 30 minutes after the administration of product 1, the NMRI mice were subjected to 6-OHDA injection according to the method as described in section 2 of General Procedures.
NMRI mice into which the vehicle was injected, and which were not treated with product 1 before the injection of the vehicle, served as a sham operated control. NMRI mice that were subjected to 6-OHDA injection and that were not treated with product 1 before the 6-OHDA injection served as a pathological control.
The NMRI mice were subjected to the beam walking test as described in the following subsection 3 on Day 1 and Day 7 after the injection of 6-OHDA or the vehicle. The obtained data were subjected to the statistical analysis as described in section 5 of General Procedures.
NMRI mice were subjected to 6-OHDA injection according to the method as described in section 2 of General Procedures. On Day 7 after the 6-OHDA injection, product 1 was administered intraperitoneally to the NMRI mice at a dose of 5 mg/kg respectively for 7 and 14 consecutive days.
NMRI mice into which a vehicle (saline containing 0.02% ascorbic acid) was injected (generally according to the method as described in section 2 of General Procedures, except that 6-OHDA was not injected), and which were not treated with product 1 after the injection of the vehicle, served as a sham operated control. NMRI mice that were subjected to 6-OHDA injection and that were not treated with product 1 after the 6-OHDA injection served as a pathological control.
The NMRI mice were subjected to the beam walking test as described in the following subsection 3 on Day 14 or Day 21 after the injection of 6-OHDA or the vehicle. The obtained data were subjected to the statistical analysis as described in section 5 of General Procedures.
A beam walking test was conducted under proper conditions, e.g., silence and illumination, so as to evaluate coordination of the respective NMRI mouse. The respective NMRI mouse was placed at a starting point of a beam having a height of 50 cm from a supporting surface, equipped with an escape plateform at each end. […] Before the beam walking test, the respective mouse was trained to walk through the beam for 3 days so that the escape latency thereof was less than 20 seconds. The total travel distance was measured.

C=CCc1ccc(O)c(-c2ccc(O)c(CC=C)c2)c1 [product 1, 5,3′-Diallyl-biphenyl-2,4′-diol]
TH expression level in right (lesioned) striatum vs pathological control, subchronic treatment ([1]; 5 mg/kg i.p. for 14 consecutive days after 6-OHDA injection, FIG. 12): significantly higher TH expression level | loss of TH-ir fibers in the striatum, subchronic post-treatment ([1]; i.p. 14 consecutive days starting Day 7, Day 21 after 6-OHDA, FIGS. 14, 15(A), 16): significantly alleviated the loss of TH-ir fibers | loss of TH-ir fibers in the substantia nigra (SN), subchronic post-treatment ([1]; i.p. 14 consecutive days starting Day 7, Day 21 after 6-OHDA, FIGS. 14, 15(B), 16): significantly alleviated the loss of TH-ir fibers | alleviation of inflammatory pain in an animal model [2]: effective in alleviating inflammatory pain | iNOS expression in the striatum, subchronic post-treatment ([3]; 0.5, 1, 5 mg/kg i.p. 14 consecutive days starting Day 7): significantly inhibited iNOS expression in the striatum | relationship between dose and number of iNOS-positive cells in the striatum ([3]; 0.5, 1, 5 mg/kg i.p.): dose-dependent relationship | 14-day post-treatment compared to 7-day post-treatment, motor incoordination ([4]; 5 mg/kg i.p.): more effectively alleviating the motor incoordination | duration of the effect of the pretreatment on motor incoordination ([4]; 5 mg/kg i.p. 30 minutes before 6-OHDA): at least 7 days | motor incoordination (beam walking), pretreatment ([4]; 5 mg/kg i.p. 30 minutes before 6-OHDA, Day 1 and Day 7 after 6-OHDA, FIGS. 18(A), 18(B)): significantly alleviated the motor incoordination | motor incoordination (beam walking), 7-day post-treatment ([4]; 5 mg/kg i.p. for 7 days starting Day 7 after 6-OHDA, tested Day 14, FIG. 19): significantly alleviated the motor incoordination | motor incoordination (beam walking), 14-day post-treatment ([4]; 5 mg/kg i.p. for 14 days starting Day 7 after 6-OHDA, tested Day 21, FIG. 19): significantly alleviated the motor incoordination
